Structures can show the parent of a compound that is named as a salt.
Experiments:
[1] = alcohol trials; 50 mg/day; cited from earlier work
[2] = tested on: alcohol-dependent individuals; assay: 12-week randomized controlled pharmacotherapy trial of ondansetron by 5'-HTTLPR genotype (Example 3); type: in vivo, human; conditions: for mean (SEM) DDD reduction from baseline across the treatment period: ondansetron 4 μg/kg b.i.d., 12 weeks
Excerpt: In a pre-planned interim analysis, data were examined for the 226 alcohol-dependent individuals (aged 18-65 years) enrolled into the 12-week randomized controlled pharmacotherapy trial to determine the effect of ondansetron on drinking among individuals who varied on allelic difference at the 5-HTT gene and age of alcoholism onset. All these individuals were enrolled at the University of Texas Health Science Center at San Antonio. Briefly, the study design was 2 (LL vs. LS/SS)×2 (early onset vs. late onset)×2 (ondansetron 4 μg/kg b.i.d. vs. placebo). The inferential results below are for the severity of drinking—drinks/drinking day (DDD).
Demographic data were that: 74% were male and 26% female; 48% were early-onset alcoholics and 52% late-onset alcoholics, and 20% were Hispanic and 80% White. There were no significant differences (P>0.05) on demographics between the treatment groups. Baseline mean (SD) DDD (past 90 days) were also similar for the ondansetron 4 μg/kg b.i.d. and placebo groups—9.83 (4.63) vs. 9.85 (4.49), respectively. The inferential analyses were conducted on all randomized subjects according to the intent-to-treat principle. The analytic plan was first to calculate the DDD in each week. We then used the difference between weekly DDD and the baseline DDD (in the past 90 days) as repeat measures. A mixed-model approach (SAS PROC MIXED) was used to study the effect of treatment, genotype (LL vs. LS/SS), treatment and genotype interaction, age, age of onset (early vs. late), gender, and age at onset of problem drinking, adjusting for the baseline DDD level. Also included is a random slope for time to study the variation in the time trend of the weekly DDD.

[3] = tested on: alcohol-dependent men and women; assay: 12-week treatment trial of ondansetron by 5'-HTTLPR and rs1042173 genotype (Example 4); type: in vivo, human
Method: 289 alcohol-dependent men and women enrolled in a 12-week treatment trial in which they received either ondansetron (4 μg/kg) or placebo. All subjects also received weekly cognitive behavioral therapy as their standardized psychosocial treatment. Genotyping was conducted on all subjects. Mixed-effects models were used to study the effect of treatment and genotype and their interaction for each of the primary drinking outcomes. The models included random intercept and random slope and were adjusted for covariates such as participants' average 90-day drinking levels prior to the study, age, gender, ethnicity (Caucasian and Hispanic), and center. A variance-components covariance matrix was used to model different variances for the intercept and slope and a covariance between them. Interactions of treatment, genotype, age, and center were first included in the models. They were excluded from the final models if not significant.

[4] = cited from earlier work
[5] = placebo vs. treatment, LL genotype
[6] = placebo vs. treatment, LS/SS genotype
[7] = treatment (ondansetron) group, LS/SS vs. LL

## O=C1CC[C@@]2(O)[C@H]3Cc4ccc(O)c5c4[C@@]2(CCN3CC2CC2)[C@H]1O5 [naltrexone, 17-(Cyclopropylmethyl)-4,5a-epoxy-3,14-dihydroxymorphinan-6-one hydrochloride]
[1]
  individuals unable to tolerate the dose: about 15%

## Cc1nccn1CC1CCc2c(c3ccccc3n2C)C1=O (centres unmarked) [ondansetron, 9-methyl-3-[(2-methyl-1H-imidazol-1-yl)methyl]-1,2,3,9-tetrahydrocarbazol-4-one]
[2]; LL genotype
  mean (SEM) DDD reduction from baseline across the treatment period: 5.70 (0.64) DDD
[2]; LS/SS genotype
  mean (SEM) DDD reduction from baseline across the treatment period: 3.45 (0.44) DDD
[2]; [5]
  Cohen's d: 0.08
  Estimate (cell contrast on DDD): 2.16 DDD
[2]; [6]
  Cohen's d: 0.04
  Estimate (cell contrast on DDD): −0.80 DDD
[2]; [7]
  Cohen's d: 0.10
  Estimate (cell contrast on DDD): 2.25 DDD
[3]; LL genotype, treatment group vs placebo group
  mean difference in DDD: −1.50 DDD
[3]; treated with ondansetron 4 μg/kg, LL vs LS/SS genotype
  mean difference in DDD: −1.41 DDD
[3]; treated with ondansetron 4 μg/kg, TT vs TG/GG genotype of rs1042173
  mean difference in DDD: −1.31 DDD

## CC1(C)O[C@@H]2[C@@H](CO[C@@]3(COS(N)(=O)=O)OC(C)(C)O[C@@H]23)O1 [topiramate, 2,3:4,5-Bis-O-(1-methylethylidene)-beta-D-fructopyranose sulfamate]
[4]; general population
  individuals reporting cognitive impairment: 2.4%
[4]; substance abuse field
  occurrence rate of cognitive impairment: about 18.7%

From US10619209B2, “Serotonin transporter gene and treatment of opioid-related disorders” (University of Virginia Patent Foundation, priority 2008, dated 2020)
